Data taken from patent US12161656B2 (MELINTA SUBSIDIARY CORP., priority 2010, dated 2024).
Where two headings read alike, the source gives them in different places.

Columns and labels:
[1] = system: rabbit red blood cells (RBCs)
[2] = Source text: The solubility of four non-dimethlyamino tetracyclines, with and without Mg^2+, was examined.
[3] = system: Human umbilical vein endothelial cells (HUVEC); test: Uptake of minocycline in HUVEC at various Mg/minocycline ratios (LCMS), Example 12; format: cell-based; details: 1 mg/mL in saline, 30 min, Mg/minocycline ratios 0-25, FIGS. 6 and 7
Description: Cells and reagents: Human umbilical vein endothelial cells (HUVEC) were purchased from Lonza and maintained according to manufacturer's recommendations in EGM-2 media. A 10 mg/mL solution of minocycline was prepared in 13.6 mg/mL Na-acetate without addition of Mg. This stock solution was further diluted in saline to 1 mg/mL with addition of Mg in the form of 1 M MgSO4 to generate the following molar ratios of Mg to minocycline: 0, 1, 2.5, 5, 10, 25.
Uptake experimental conditions: HUVECs were seeded at 4.5×10^5 cells/well density in 6-well plates in EGM-2 media. Two days after seeding, cells were washed once with 2 mL of saline, and then 2 mL of 1 mg/mL drug solution in saline prepared as described above was placed in each well in triplicate. Plates were incubated in a CO2 incubator at 37° C. for 30 min. Drug solutions were aspirated and cells were washed once with 2 mL of saline. 0.5 mL of saline was placed in each well and the cell monolayer was scraped using a plastic cell scraper. Cell suspensions were transferred to 1.5 mL plastic tubes and sonicated for 30 sec at maximal power. Cell lysates were spun down for 10 min on a table top microcentrifuge at maximum speed and supernatants were collected. […]

[4] = system: rabbit red blood cells (RBCs); test: In vitro hemolysis of rabbit red blood cells (in vitro model of venous phlebitis), Example 8; details: Table 29, rabbit RBCs, 2.5 mg/ml minocycline solution, different molar ratios cation:minocycline

C[C@@H]1[C@H](O)[C@@H](C)/C=C/C=C/C=C/C=C/C=C/C=C/C=C/[C@H](O[C@@H]2O[C@H](C)[C@@H](O)[C@H](N)[C@@H]2O)C[C@@H]2O[C@](O)(C[C@@H](O)C[C@@H](O)[C@H](O)CC[C@@H](O)C[C@@H](O)CC(=O)O[C@H]1C)C[C@H](O)[C@H]2C(=O)O [Amphoterin B, Amphotericin B]
Hemolysis of RBCs in solution relative to water [1]: 101.31%
Hemolysis of RBCs in solution relative to water ([1]; pH 5.85): 101.31%

C[C@H]1c2cccc(O)c2C(=O)C2=C(O)[C@]3(O)C(=O)C(C(N)=O)=C(O)[C@@H](N(C)C)[C@@H]3[C@@H](O)[C@@H]21 [Doxycycline]
solubility (text summary of Table 36) [2]: is soluble in the absence of divalent cations, such as Mg^2+, but is insoluble in the presence of divalent cations at low pH

CN(C)c1ccc(O)c2c1C[C@H]1C[C@H]3[C@H](N(C)C)C(O)=C(C(N)=O)C(=O)[C@@]3(O)C(O)=C1C2=O [Minocycline]
intracellular uptake of minocycline [3]: decrease in intracellular uptake of minocycline is observed as the concentration of a divalent cation, such as Mg^2+ increases

CN(C)[C@@H]1C(O)=C(C(N)=O)C(=O)[C@@]2(O)C(O)=C3C(=O)c4c(O)cccc4[C@@](C)(O)[C@H]3[C@H](O)[C@@H]12 [oxytetracycline]
solubility (text summary of Table 36) [2]: remains insoluble in the presence of divalent cations, such as Mg^2+, at low pH

Triton-x
Hemolysis of RBCs in solution relative to water [4]: 97.82%
